Molecular target: T1, Human BCL-XL protein (N-terminal HiBiT tagged BCL-XL expressed in HT1080 cells) (Homo sapiens, UniProt Q07817)
T1 construct: expressed in transfected cells; host or cells: HT-1080 (ATCC CCL-121), stably transduced with lentivirus pLV-UBC-N-HiBiT-BCL-XL-PGK-puro and selected with puromycin
Assay: HiBiT Based Degradation Assay
Format: cell-based
Settings: 24 hours incubation; for DC50: BCL-XL degradation, HT1080 cells expressing N-HiBiT-BCL-XL, normalized with DMSO control, geometric mean for multiple data points, read-out: EC50 (24 h); for Ymin (24 h): bottom of BCL-XL degradation curve (remaining HiBiT-BCL-XL signal vs DMSO control), HT1080 cells
Summary of the method: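 BCL-XL degradation was read as Nano-Glo HiBiT lytic luminescence relative to DMSO after a 24 h compound treatment of HT1080 cells carrying stably integrated N-HiBiT-BCL-XL. EC50 values come from four-parameter logistic curves, with the hook-curve minimum fixed as bottom, and are geometric means where tested repeatedly.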

T1 sequence (Q07817 whole entry): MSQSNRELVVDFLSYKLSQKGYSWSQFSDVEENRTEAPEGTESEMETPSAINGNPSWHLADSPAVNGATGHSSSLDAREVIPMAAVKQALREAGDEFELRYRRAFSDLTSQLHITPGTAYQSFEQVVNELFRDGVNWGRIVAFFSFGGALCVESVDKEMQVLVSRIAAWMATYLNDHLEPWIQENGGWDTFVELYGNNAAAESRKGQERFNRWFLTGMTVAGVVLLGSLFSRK

Structure (SMILES)	DC50 [nM]	Ymin (24 h)
COc1c(NC(=O)CN2CC[C@H](CCCOc3cccc(-c4ccc(N5CCc6cccc(C(=O)Nc7nc8ccccc8s7)c6C5)nc4C(=O)O)c3C)C[C@H]2C)ccc2c(C3CCC(=O)NC3=O)nn(C)c12 (some centres unmarked) [Compound 208c]	10 to 100	B (30% ≤ Ymin < 50%)
COc1cc2c(C3CCC(=O)NC3=O)nn(C)c2cc1NC(=O)CN1CCC(CCCOc2ccc(-c3ccc(N4CCc5cccc(C(=O)Nc6nc7ccccc7s6)c5C4)nc3C(=O)O)c(C)c2)CC1 (centres unmarked) [Compound 103, 6-[8-(1,3-benzothiazol-2-ylcarbamoyl)-3,4-dihydro-1H-isoquinolin-2-yl]-3-[4-[3-[1-[2-[[3-(2,6-dioxo-3-piperidyl)-5-methoxy-1-methyl-indazol-6-yl]amino]-2-oxo-ethyl]-4-piperidyl]propoxy]-2-methyl-phenyl]pyridine-2-carboxylic acid]	100 to 1000	B (30% ≤ Ymin < 50%)
Cc1c(OC[C@H]2C[C@H]2C2CCN(CC(=O)Nc3ccc4c(C5CCC(=O)NC5=O)nn(C)c4c3)CC2)cccc1-c1ccc(N2CCc3cccc(C(=O)Nc4nc5ccccc5s4)c3C2)nc1C(=O)O (single isomer, unassigned) [Compound 1001c]	10 to 100	B (30% ≤ Ymin < 50%)
Cn1nc(C2CCC(=O)NC2=O)c2ccc(NC(=O)CN3CCC(CCCOc4cccc(-c5ccc(N6CCc7cccc(C(=O)Nc8nc9ccccc9s8)c7C6)nc5C(=O)O)c4F)CC3)c(F)c21 (centres unmarked) [Compound 211]	10 to 100	C (50% ≤ Ymin < 70%)
Cn1nc(C2CCC(=O)NC2=O)c2ccc(NC(=O)CN3CCC(CCCOc4ccc(-c5ccc(N6CCc7ccnc(C(=O)Nc8nc9ccccc9s8)c7C6)nc5C(=O)O)c(C(F)(F)F)c4)CC3)cc21 (centres unmarked) [Compound 157, 6-[8-(1,3-benzothiazol-2-ylcarbamoyl)-3,4-dihydro-1H-2,7-naphthyridin-2-yl]-3-[4-[3-[1-[2-[[3-(2,6-dioxo-3-piperidyl)-1-methyl-indazol-6-yl]amino]-2-oxo-ethyl]-4-piperidyl]propoxy]-2-(trifluoromethyl)phenyl]pyridine-2-carboxylic acid]	10 to 100	A (Ymin < 30%)
Cc1cc(OC2CC3(CCN(CC(=O)Nc4ccc5c(C6CCC(=O)NC6=O)nn(C)c5c4)CC3)C2)ccc1-c1ccc(N2CCc3ccnc(C(=O)Nc4nc5ccccc5s4)c3C2)nc1C(=O)O (centres unmarked) [Compound 167, 6-[8-(1,3-benzothiazol-2-ylcarbamoyl)-3,4-dihydro-1H-2,7-naphthyridin-2-yl]-3-[4-[[7-[2-[[3-(2,6-dioxo-3-piperidyl)-1-methyl-indazol-6-yl]amino]-2-oxo-ethyl]-7-azaspiro[3.5]nonan-2-yl]oxy]-2-methyl-phenyl]pyridine-2-carboxylic acid]	< 10	A (Ymin < 30%)
Cc1c(OC[C@@H]2C[C@@H]2C2CCN(CC(=O)Nc3ccc4c(C5CCC(=O)NC5=O)nn(C)c4c3)CC2)cccc1-c1ccc(N2CCc3cccc(C(=O)Nc4nc5ccccc5s4)c3C2)nc1C(=O)O (single isomer, unassigned) [Compound 1001d]	10 to 100	B (30% ≤ Ymin < 50%)
Cn1nc(C2CCC(=O)NC2=O)c2ccc(NC(=O)CN3CCC4(CC3)CC(Oc3cccc(-c5ccc(N6CCc7ccnc(C(=O)Nc8nc9ccccc9s8)c7C6)nc5C(=O)O)c3C(F)(F)F)C4)cc21 (centres unmarked) [Compound 154, 6-[8-(1,3-benzothiazol-2-ylcarbamoyl)-3,4-dihydro-1H-2,7-naphthyridin-2-yl]-3-[3-[[7-[2-[[3-(2,6-dioxo-3-piperidyl)-1-methyl-indazol-6-yl]amino]-2-oxo-ethyl]-7-azaspiro[3.5]nonan-2-yl]oxy]-2-(trifluoromethyl)phenyl]pyridine-2-carboxylic acid]	< 10	B (30% ≤ Ymin < 50%)
Cc1cc(OC[C@@H]2C[C@H]2CC2CCN(CC(=O)Nc3ccc4c(C5CCC(=O)NC5=O)nn(C)c4c3)CC2)ccc1-c1ccc(N2CCc3cccc(C(=O)Nc4nc5ccccc5s4)c3C2)nc1C(=O)O (single isomer, unassigned) [Compound 1002c]	< 10	A (Ymin < 30%)
COc1c(NC(=O)CN2CC[C@@H](CCCOc3cccc(-c4ccc(N5CCc6ccnc(C(=O)Nc7nc8ccccc8s7)c6C5)nc4C(=O)O)c3C)C[C@@H]2C)ccc2c(C3CCC(=O)NC3=O)nn(C)c12 (some centres unmarked) [Compound 216b]	< 10	B (30% ≤ Ymin < 50%)
Cc1c(OCCCC2CCN(CCNc3ccc4c(C5CCC(=O)NC5=O)nn(C)c4c3)CC2)cccc1-c1ccc(N2CCc3cccc(C(=O)Nc4nc5ccccc5s4)c3C2)nc1C(=O)O (centres unmarked) [Compound 150, 6-[8-(1,3-benzothiazol-2-ylcarbamoyl)-3,4-dihydro-1H-isoquinolin-2-yl]-3-[3-[3-[1-[2-[[3-(2,6-dioxo-3-piperidyl)-1-methyl-indazol-6-yl]amino]ethyl]-4-piperidyl]propoxy]-2-methyl-phenyl]pyridine-2-carboxylic acid]	< 10	B (30% ≤ Ymin < 50%)
C[C@@H](CCC1CCN(CC(=O)Nc2ccc3c(C4CCC(=O)NC4=O)nn(C)c3c2)CC1)Oc1ccc(-c2ccc(N3CCc4cccc(C(=O)Nc5nc6ccccc6s5)c4C3)nc2C(=O)O)c(C(F)(F)F)c1 (single isomer, unassigned) [Compound 138a]	< 10	B (30% ≤ Ymin < 50%)

Further lines, results first:

DC50 [nM]	Ymin (24 h)	Structure (SMILES)
10 to 100	B (30% ≤ Ymin < 50%)	Cc1cc(OCCC2CC3(CCN(CC(=O)Nc4ccc5c(C6CCC(=O)NC6=O)nn(C)c5c4)CC3)C2)ccc1-c1ccc(N2CCc3cccc(C(=O)Nc4nc5ccccc5s4)c3C2)nc1C(=O)O (centres unmarked) [Compound 115, 6-(8-(benzo[d]thiazol-2-ylcarbamoyl)-3,4-dihydroisoquinolin-2(1H)-yl)-3-(4-(2-(7-(2-((3-(2,6-dioxopiperidin-3-yl)-1-methyl-1H-indazol-6-yl)amino)-2-oxoethyl)-7-azaspiro[3.5]nonan-2-yl)ethoxy)-2-methylphenyl)picolinic acid]
< 10	A (Ymin < 30%)	Cc1c(OCC2CC3(CCN(CCNc4ccc5c(C6CCC(=O)NC6=O)nn(C)c5c4)CC3)C2)cccc1-c1ccc(N2CCc3cccc(C(=O)Nc4nc5ccccc5s4)c3C2)nc1C(=O)O (centres unmarked) [Compound 153, 6-[8-(1,3-benzothiazol-2-ylcarbamoyl)-3,4-dihydro-1H-isoquinolin-2-yl]-3-[3-[[7-[2-[[3-(2,6-dioxo-3-piperidyl)-1-methyl-indazol-6-yl]amino]ethyl]-7-azaspiro[3.5]nonan-2-yl]methoxy]-2-methyl-phenyl]pyridine-2-carboxylic acid]
< 10	B (30% ≤ Ymin < 50%)	Cc1c(OCC[C@@H]2C[C@@H]3CN(CC(=O)Nc4ccc5c(C6CCC(=O)NC6=O)nn(C)c5c4)C[C@@H]3C2)cccc1-c1ccc(N2CCc3cccc(C(=O)Nc4nc5ccccc5s4)c3C2)nc1C(=O)O (some centres unmarked) [Compound 173a]
10 to 100	B (30% ≤ Ymin < 50%)	Cn1nc(C2CCC(=O)NC2=O)c2ccc(NC(=O)CN3CCC4(CC3)CC(COc3cccc(-c5ccc(N6CCc7cccc(C(=O)Nc8nc9ccccc9s8)c7C6)nc5C(=O)O)c3C(F)(F)F)C4)nc21 (centres unmarked) [Compound 147]
10 to 100	B (30% ≤ Ymin < 50%)	Cc1c(OCC2CC3(CCN(CC(=O)Nc4cc5c(cc4F)c(C4CCC(=O)NC4=O)nn5C)CC3)C2)cccc1-c1ccc(N2CCc3cccc(C(=O)Nc4nc5ccccc5s4)c3C2)nc1C(=O)O (centres unmarked) [Compound 121]
< 10	A (Ymin < 30%)	Cc1cc(OC2CC3(CCN(CC(=O)Nc4ccc5c(C6CCC(=O)NC6=O)nn(C)c5n4)CC3)C2)ccc1-c1ccc(N2CCc3ccnc(C(=O)Nc4nc5ccccc5s4)c3C2)nc1C(=O)O (centres unmarked) [Compound 213]
10 to 100	B (30% ≤ Ymin < 50%)	COc1c(NC(=O)CN2CCC3(CC2)CC(COc2ccc(-c4ccc(N5CCc6cccc(C(=O)Nc7nc8ccccc8s7)c6C5)nc4C(=O)O)c(C(F)(F)F)c2)C3)ccc2c(C3CCC(=O)NC3=O)nn(C)c12 (centres unmarked) [Compound 144, 6-(8-(benzo[d]thiazol-2-ylcarbamoyl)-3,4-dihydroisoquinolin-2(1H)-yl)-3-(4-((7-(2-((3-(2,6-dioxopiperidin-3-yl)-7-methoxy-1-methyl-1H-indazol-6-yl)amino)-2-oxoethyl)-7-azaspiro[3.5]nonan-2-yl)methoxy)-2-(trifluoromethyl)phenyl)picolinic acid]
10 to 100	C (50% ≤ Ymin < 70%)	Cc1cc(OCCCC2CCN(CC(=O)Nc3cc4c(cc3F)c(C3CCC(=O)NC3=O)nn4C)CC2)ccc1-c1ccc(N2CCc3cccc(C(=O)Nc4nc5ccccc5s4)c3C2)nc1C(=O)O (centres unmarked) [Compound 109]
10 to 100	B (30% ≤ Ymin < 50%)	Cn1nc(C2CCC(=O)NC2=O)c2ccc(NC(=O)CN3CCC4(CC3)CC(COc3ccc(-c5ccc(N6CCc7cccc(C(=O)Nc8nc9ccccc9s8)c7C6)nc5C(=O)O)c(C(F)(F)F)c3)C4)c(F)c21 (centres unmarked) [Compound 186]
10 to 100	B (30% ≤ Ymin < 50%)	Cc1cc(OCC2CC3(CCN(CC(=O)Nc4cc5c(cc4F)c(C4CCC(=O)NC4=O)nn5C)CC3)C2)ccc1-c1ccc(N2CCc3cccc(C(=O)Nc4nc5ccccc5s4)c3C2)nc1C(=O)O (centres unmarked) [Compound 123]

Reference: patent US20260216170A1, “TETRAHYDROISOQUINOLINE HETEROBIFUNCTIONAL BCL-XL DEGRADERS” (Treeline Biosciences, Inc., priority 2023, published 2026)
